# Values of other authors in patent publication US20090082370A1, “Pharmaceutical Combinations of PK Inhibitors and Other Active Agents” (priority 2006, published 2009).
# Legend:
# [1] = antitumour agent
# [2] = in vivo
# PKB = PKB (Homo sapiens, UniProt P31749); details: read-out: IC50 against PKB
# PKA = details: read-out: IC50 against PKA
# PKG = details: read-out: IC50 against PKG
# PKC = details: read-out: IC50 against PKC
# OVCAR-3 tumour cells = details: at concentrations of 50 and 100 microM
# [3] = doses 10 times more than were needed for antitumour activity
# [4] = test system: phospho-AKT in breast cancer cells; details: both in vitro and in vivo
# [5] = test system: Acute Promyelocytic Leukemia (APL)
# Sequence of PKB (P31749 whole entry, species assumed): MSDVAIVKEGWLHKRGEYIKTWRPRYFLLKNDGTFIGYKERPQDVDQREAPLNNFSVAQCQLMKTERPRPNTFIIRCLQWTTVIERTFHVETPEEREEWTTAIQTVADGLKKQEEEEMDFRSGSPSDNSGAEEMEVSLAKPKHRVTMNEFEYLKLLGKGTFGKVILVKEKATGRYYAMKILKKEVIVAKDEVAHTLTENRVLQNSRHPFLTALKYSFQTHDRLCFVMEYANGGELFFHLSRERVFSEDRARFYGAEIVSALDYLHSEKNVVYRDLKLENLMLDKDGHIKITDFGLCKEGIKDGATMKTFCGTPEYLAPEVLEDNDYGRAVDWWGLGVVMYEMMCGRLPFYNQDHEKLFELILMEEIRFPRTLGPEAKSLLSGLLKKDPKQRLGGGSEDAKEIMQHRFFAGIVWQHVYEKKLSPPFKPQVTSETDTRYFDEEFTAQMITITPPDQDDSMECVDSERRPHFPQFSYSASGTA
smiles,measurement,setting,value
CCN[C@H]1CO[C@@H](O[C@H]2[C@H](O[C@H]3C#C/C=C\C#C[C@]4(O)CC(=O)C(NC(=O)OC)=C3/C4=C\CSSSC)O[C@H](C)[C@@H](NO[C@H]3C[C@H](O)[C@H](SC(=O)c4c(C)c(I)c(O[C@@H]5O[C@@H](C)[C@H](O)[C@@H](OC)[C@H]5O)c(OC)c4OC)[C@@H](C)O3)[C@@H]2O)C[C@@H]1OC [Calicheamicin],potency relative to adriamycin,[1],"over 1,000 times"
CCCCCCCCCCCCCCCCCCOP(=O)([O-])OC1CC[N+](C)(C)CC1 [KRX-0401],half-life,[2],~100 h
O=S(=O)(NCCNCC=C(c1ccccc1)c1ccccc1)c1cccc2cnccc12 [NL-71-101],IC50,PKB,3.7 µM
same,IC50,PKA,9 µM
same,IC50,PKG,36 µM
same,IC50,PKC,104 µM
same,"apoptosis in OVCAR-3 tumour cells, in which PKB is amplified",OVCAR-3 tumour cells,induced apoptosis
CCOC(=O)c1ccc2[nH]c3c(OC)c4[nH]c5ccc(C(=O)OCC)cc5c4cc3c2c1 [SR-13668],adverse effects in mice,[3],no adverse effects
same,inhibition of phospho-AKT,[4],significantly inhibits
"CC1=C(/C=C/C(C)=C/C=C/C(C)=C/C(=O)O)C(C)(C)CCC1 [Tretinoin, all-trans retinoic acid]",remissions in APL patients,[5],64-100%
